Measurements: a compilation of properties of binary mixtures (doi:10.1016/j.molliq.2017.11.153)

Assay: xn = mol fraction of the nth substance listed
Details: 101 kPa

CCCC[n+]1ccccc1.N#C[N-]C#N + CC1COC(=O)O1
Details	electrical conductivity [S/m]	viscosity [mPa·s]
288.15 K, x1 = 0.197	0.742	6.99
288.15 K, x1 = 0.3005	1.42	9.49
288.15 K, x1 = 0.4003	1.56	13.97
288.15 K, x1 = 0.4997	1.5	17.55
288.15 K, x1 = 0.6002	1.73	22.95
288.15 K, x1 = 0.7011	1.64	29.62
288.15 K, x1 = 0.7885	1.86	36.03
288.15 K, x1 = 0.9008	1.76	44.07
288.15 K, x1 = 1	1.05	51.49
293.15 K, x1 = 0.1003	0.749	4.23
293.15 K, x1 = 0.197	0.986	5.99
293.15 K, x1 = 0.3005	1.54	8.102
293.15 K, x1 = 0.4003	1.7	11.73
293.15 K, x1 = 0.6002	1.89	18.85
293.15 K, x1 = 0.7011	1.8	24.05
293.15 K, x1 = 0.7885	2.06	29.56
293.15 K, x1 = 0.9008	1.96	36.12
293.15 K, x1 = 1	1.24	41.05
298.15 K, x1 = 0.1003	0.979	3.756
298.15 K, x1 = 0.197	1.25	5.229
298.15 K, x1 = 0.4003	1.92	10
298.15 K, x1 = 0.4997	1.92	12.17
298.15 K, x1 = 0.6002	2.1	15.72
298.15 K, x1 = 0.9008	2.19	29.65
298.15 K, x1 = 1	1.48	33.27
303.15 K, x1 = 0.1003	1.18	3.361
303.15 K, x1 = 0.197	1.49	4.616
303.15 K, x1 = 0.4003	2.13	8.585
303.15 K, x1 = 0.4997	2.16	10.33
303.15 K, x1 = 0.7011	2.3	16.61
303.15 K, x1 = 0.7885	2.54	20.61
303.15 K, x1 = 0.9008	2.44	24.44
303.15 K, x1 = 1	1.75	27.62
308.15 K, x1 = 0.197	1.71	4.109
308.15 K, x1 = 0.4003	2.36	7.468
308.15 K, x1 = 0.4997	2.37	8.918
308.15 K, x1 = 0.6002	2.6	11.36
308.15 K, x1 = 0.7885	2.82	17.47
308.15 K, x1 = 0.9008	2.72	20.45
308.15 K, x1 = 1	2.01	22.9
313.15 K, x1 = 0.197	1.97	3.689
313.15 K, x1 = 0.4003	2.62	6.563
313.15 K, x1 = 0.4997	2.63	7.769
313.15 K, x1 = 0.6002	2.85	9.83
313.15 K, x1 = 0.7011	2.8	12.08
313.15 K, x1 = 0.7885	3.1	14.86
313.15 K, x1 = 0.9008	3	17.22
313.15 K, x1 = 1	2.26	19.3
318.15 K, x1 = 0.197	2.19	3.335
318.15 K, x1 = 0.3005	2.75	4.265
318.15 K, x1 = 0.4003	2.89	5.812
318.15 K, x1 = 0.4997	2.92	6.839
318.15 K, x1 = 0.6002	3.13	8.579
318.15 K, x1 = 0.7885	3.39	12.44
318.15 K, x1 = 0.9008	3.28	14.84
318.15 K, x1 = 1	2.54	16.73
323.15 K, x1 = 0.1003	2	2.291
323.15 K, x1 = 0.4003	3.17	5.183
323.15 K, x1 = 0.4997	3.27	6.066
323.15 K, x1 = 0.6002	3.42	7.559
323.15 K, x1 = 0.9008	3.6	12.65
323.15 K, x1 = 1	2.88	14.44
328.15 K, x1 = 0.1003	2.23	2.121
328.15 K, x1 = 0.197	2.71	2.794
328.15 K, x1 = 0.3005	3.33	3.481
328.15 K, x1 = 0.4003	3.48	4.656
328.15 K, x1 = 0.4997	3.61	5.42
328.15 K, x1 = 0.7011	3.77	8.083
328.15 K, x1 = 0.7885	4.05	9.34
328.15 K, x1 = 0.9008	3.93	11.05
333.15 K, x1 = 0.1003	2.43	1.968
333.15 K, x1 = 0.4003	3.83	4.209
333.15 K, x1 = 0.4997	3.94	4.876
333.15 K, x1 = 0.6002	4.07	6.001
333.15 K, x1 = 0.7885	4.4	8.312
333.15 K, x1 = 0.9008	4.29	9.53
338.15 K, x1 = 0.1003	2.64	1.834
338.15 K, x1 = 0.3005	4.02	2.906
338.15 K, x1 = 0.4003	4.17	3.827
338.15 K, x1 = 0.4997	4.3	4.429
338.15 K, x1 = 0.6002	4.43	5.401
338.15 K, x1 = 0.7011	4.53	6.433
338.15 K, x1 = 0.7885	4.78	7.324
338.15 K, x1 = 0.9008	4.68	8.488
338.15 K, x1 = 1	3.83	9.79
343.15 K, x1 = 0.1003	2.85	1.716
343.15 K, x1 = 0.197	3.42	2.232
343.15 K, x1 = 0.3005	4.37	2.675
343.15 K, x1 = 0.4003	4.53	3.498
343.15 K, x1 = 0.4997	4.68	4.039
343.15 K, x1 = 0.6002	4.83	4.891
343.15 K, x1 = 0.7885	5.21	6.724
343.15 K, x1 = 1	4.21	8.771
348.15 K, x1 = 0.1003	3.07	1.612
348.15 K, x1 = 0.197	3.69	2.089
348.15 K, x1 = 0.4003	4.92	3.213
348.15 K, x1 = 0.4997	5.12	3.704
348.15 K, x1 = 0.6002	5.3	4.454
348.15 K, x1 = 0.7885	5.72	6.247
348.15 K, x1 = 0.9008	5.61	6.724
348.15 K, x1 = 1	4.53	7.884
353.15 K, x1 = 0.1003	3.26	1.519
353.15 K, x1 = 0.197	3.93	1.964
353.15 K, x1 = 0.3005	5.11	2.296
353.15 K, x1 = 0.4997	5.58	3.414
353.15 K, x1 = 0.6002	5.79	4.076
353.15 K, x1 = 0.7011	5.98	4.787
353.15 K, x1 = 0.7885	6.29	5.647
353.15 K, x1 = 0.9008	6.14	6.159
353.15 K, x1 = 1	4.93	7.129

CC1COC(=O)O1 (configuration not stated) + CCCC[n+]1ccccc1.N#C[N-]C#N
x2 = 0
Details	viscosity [mPa·s]
288.15 K	3.064
293.15 K	2.738
298.15 K	2.469
303.15 K	2.24
308.15 K	2.042
313.15 K	1.873
323.15 K	1.595
328.15 K	1.464
338.15 K	1.277
343.15 K	1.195
348.15 K	1.122
353.15 K	1.056
